Several values for one entry are separate records, joined by “and”; a condition that tells them apart may be missing. Identical values can stand only once. Like-named read-outs stand apart in the source and are kept apart here.
Key:
tsV1_M579T = tsV1_M579T (Tupaia chinensis, UniProt L8Y7X1, M598T); assay: cell-based; type: cell-based, tree shrew
tsV1_M579S = tsV1_M579S (Tupaia chinensis, UniProt L8Y7X1, M598S); assay: cell-based; set-up: species or system tree shrew
tsV1_M579G = tsV1_M579G (Tupaia chinensis, UniProt L8Y7X1, M598G); assay: cell-based; set-up: species or system tree shrew
tsV1_M579A = tsV1_M579A (Tupaia chinensis, UniProt L8Y7X1, M598A); assay: cell-based; set-up: species or system tree shrew
mV1_T551M [1] = target: T1, mV1_T551M (Mus musculus, UniProt Q704Y3, T551M); assay: cell-based
T1 construct: expressed in transfected cells; host or cells: HEK293T (patch clamp); HEK293 (calcium imaging)

polar bear TRPV1 (pV1) = polar bear TRPV1 (pV1) (Ursus maritimus, UniProt A0A384CG69); assay: cell-based
tree shrew TRPV1 (tsV1) = tree shrew TRPV1 (tsV1) (Tupaia chinensis, UniProt L8Y7X1); assay: cell-based; conditions: for EC50: EC50 for activation of tsV1
mV1_T551M [2] = target: T1, mV1_T551M; type: cell-based
human TRPV1 (hV1) = target: T2, human TRPV1 (hV1) (Homo sapiens, UniProt Q8NER1); assay: cell-based
T2 construct: expressed in transfected cells; host or cells: HEK293T

mouse TRPV1 (mV1) = target: T3, mouse TRPV1 (mV1) (Mus musculus, UniProt Q704Y3); assay: cell-based; conditions: EC50 for activation of mV1
T3 construct: expressed in transfected cells; host or cells: HEK293T

tsV1_M579V = tsV1_M579V (Tupaia chinensis, UniProt L8Y7X1, M598V); assay: cell-based; set-up: species or system tree shrew
tree shrews = type: in vivo, tree shrew (Tupaia belangeri chinensis);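 on Normalized food-intake, tree shrew (individual replicate): normalized to average intake of feed without capsaicin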
BALB/c mice [3] = conditions: in vivo; for Change of food intake when the compound is added to the food: mouse
mV1_T551V = target: T4, mV1_T551V (Mus musculus, UniProt Q704Y3, T551V); assay: cell-based
T4 construct: expressed in transfected cells; host or cells: HEK293T

tree shrew = conditions: in vivo
BALB/c mice [4] = conditions: in vivo
tree shrew DRG neurons = type: cell-based
mouse paw tissue = conditions: in vivo
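Wherever Normalized food-intake, mouse (individual replicate) is given: normalized to average intake of feed without capsaicin.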

T1 sequence (Q704Y3 whole entry T551M): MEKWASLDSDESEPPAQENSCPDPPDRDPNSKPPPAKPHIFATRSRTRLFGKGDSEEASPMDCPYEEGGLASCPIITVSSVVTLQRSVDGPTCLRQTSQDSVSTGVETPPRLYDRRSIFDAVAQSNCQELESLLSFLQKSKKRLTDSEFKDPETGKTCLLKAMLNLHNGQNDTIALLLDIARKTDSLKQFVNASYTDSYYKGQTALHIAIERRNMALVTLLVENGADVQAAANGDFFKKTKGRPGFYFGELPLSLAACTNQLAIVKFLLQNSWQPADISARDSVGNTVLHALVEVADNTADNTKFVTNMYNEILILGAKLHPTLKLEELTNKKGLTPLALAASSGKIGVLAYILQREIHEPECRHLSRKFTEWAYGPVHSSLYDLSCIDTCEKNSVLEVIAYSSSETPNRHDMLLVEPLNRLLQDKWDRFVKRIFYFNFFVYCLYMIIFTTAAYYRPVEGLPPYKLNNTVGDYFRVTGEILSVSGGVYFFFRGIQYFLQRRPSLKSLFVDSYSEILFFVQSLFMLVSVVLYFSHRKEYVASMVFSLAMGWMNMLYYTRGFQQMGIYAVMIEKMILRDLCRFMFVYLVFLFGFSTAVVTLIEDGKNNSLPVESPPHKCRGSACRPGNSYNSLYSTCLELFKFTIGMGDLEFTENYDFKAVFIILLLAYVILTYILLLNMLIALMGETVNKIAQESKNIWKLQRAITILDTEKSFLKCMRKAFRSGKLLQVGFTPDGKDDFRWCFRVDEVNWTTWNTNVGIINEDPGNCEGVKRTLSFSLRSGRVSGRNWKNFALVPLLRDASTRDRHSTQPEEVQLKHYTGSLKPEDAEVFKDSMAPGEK
T3 sequence (Q704Y3 whole entry): as the sequence (Q704Y3 whole entry T551M) above, with M551T counted along it
Chain of tree shrew TRPV1 (tsV1) (L8Y7X1 1-828): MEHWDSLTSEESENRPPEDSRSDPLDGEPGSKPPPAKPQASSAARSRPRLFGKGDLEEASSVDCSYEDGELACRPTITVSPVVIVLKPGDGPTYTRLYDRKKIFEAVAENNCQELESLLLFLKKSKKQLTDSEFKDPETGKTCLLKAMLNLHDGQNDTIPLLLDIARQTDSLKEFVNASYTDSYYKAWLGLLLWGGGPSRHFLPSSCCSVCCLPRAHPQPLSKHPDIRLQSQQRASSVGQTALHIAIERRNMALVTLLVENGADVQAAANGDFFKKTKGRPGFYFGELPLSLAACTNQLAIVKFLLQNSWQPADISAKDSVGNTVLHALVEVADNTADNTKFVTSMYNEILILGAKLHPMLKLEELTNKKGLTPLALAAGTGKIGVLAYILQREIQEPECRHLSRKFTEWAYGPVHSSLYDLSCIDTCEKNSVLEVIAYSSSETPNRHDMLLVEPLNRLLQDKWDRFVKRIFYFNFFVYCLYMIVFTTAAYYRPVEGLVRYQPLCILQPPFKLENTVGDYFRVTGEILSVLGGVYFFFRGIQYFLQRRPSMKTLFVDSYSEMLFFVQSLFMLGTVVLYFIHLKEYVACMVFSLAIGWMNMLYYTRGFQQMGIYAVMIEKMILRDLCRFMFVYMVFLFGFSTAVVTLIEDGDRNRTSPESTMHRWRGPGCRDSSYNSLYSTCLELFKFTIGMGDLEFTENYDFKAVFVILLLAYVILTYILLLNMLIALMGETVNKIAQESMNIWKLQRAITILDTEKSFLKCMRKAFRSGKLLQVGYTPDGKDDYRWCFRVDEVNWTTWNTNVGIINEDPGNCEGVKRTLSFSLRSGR
Chain of tsV1_M579T (L8Y7X1 1-828 M598T): as the sequence (L8Y7X1 1-828) above, with M598T counted along it
Chain of tsV1_M579S (L8Y7X1 1-828 M598S): as the sequence (L8Y7X1 1-828) above, with M598S counted along it
Chain of tsV1_M579G (L8Y7X1 1-828 M598G): as the sequence (L8Y7X1 1-828) above, with M598G counted along it
Chain of tsV1_M579A (L8Y7X1 1-828 M598A): as the sequence (L8Y7X1 1-828) above, with M598A counted along it
T2 sequence (Q8NER1 whole entry): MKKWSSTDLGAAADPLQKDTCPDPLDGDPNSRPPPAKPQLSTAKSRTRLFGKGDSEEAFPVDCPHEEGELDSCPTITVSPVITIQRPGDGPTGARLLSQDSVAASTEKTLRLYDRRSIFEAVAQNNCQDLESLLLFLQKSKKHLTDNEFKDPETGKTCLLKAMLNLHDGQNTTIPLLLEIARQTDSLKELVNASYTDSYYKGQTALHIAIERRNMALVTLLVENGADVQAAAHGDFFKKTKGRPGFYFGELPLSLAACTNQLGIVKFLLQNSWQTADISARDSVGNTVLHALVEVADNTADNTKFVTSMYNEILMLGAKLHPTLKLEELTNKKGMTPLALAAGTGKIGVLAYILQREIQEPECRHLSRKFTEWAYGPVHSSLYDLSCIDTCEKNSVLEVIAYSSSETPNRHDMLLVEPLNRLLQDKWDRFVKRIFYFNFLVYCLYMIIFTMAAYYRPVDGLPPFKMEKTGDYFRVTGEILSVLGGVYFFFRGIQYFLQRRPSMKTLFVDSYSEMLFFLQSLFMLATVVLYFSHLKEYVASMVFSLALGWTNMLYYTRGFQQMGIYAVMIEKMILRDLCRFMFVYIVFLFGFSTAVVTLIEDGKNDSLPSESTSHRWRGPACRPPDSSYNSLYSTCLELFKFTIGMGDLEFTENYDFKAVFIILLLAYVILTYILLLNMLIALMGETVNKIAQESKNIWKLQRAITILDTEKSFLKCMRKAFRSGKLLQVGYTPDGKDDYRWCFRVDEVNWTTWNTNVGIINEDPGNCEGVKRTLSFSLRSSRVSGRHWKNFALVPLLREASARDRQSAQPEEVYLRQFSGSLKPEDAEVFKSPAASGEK
Chain of polar bear TRPV1 (pV1) (A0A384CG69 1-841): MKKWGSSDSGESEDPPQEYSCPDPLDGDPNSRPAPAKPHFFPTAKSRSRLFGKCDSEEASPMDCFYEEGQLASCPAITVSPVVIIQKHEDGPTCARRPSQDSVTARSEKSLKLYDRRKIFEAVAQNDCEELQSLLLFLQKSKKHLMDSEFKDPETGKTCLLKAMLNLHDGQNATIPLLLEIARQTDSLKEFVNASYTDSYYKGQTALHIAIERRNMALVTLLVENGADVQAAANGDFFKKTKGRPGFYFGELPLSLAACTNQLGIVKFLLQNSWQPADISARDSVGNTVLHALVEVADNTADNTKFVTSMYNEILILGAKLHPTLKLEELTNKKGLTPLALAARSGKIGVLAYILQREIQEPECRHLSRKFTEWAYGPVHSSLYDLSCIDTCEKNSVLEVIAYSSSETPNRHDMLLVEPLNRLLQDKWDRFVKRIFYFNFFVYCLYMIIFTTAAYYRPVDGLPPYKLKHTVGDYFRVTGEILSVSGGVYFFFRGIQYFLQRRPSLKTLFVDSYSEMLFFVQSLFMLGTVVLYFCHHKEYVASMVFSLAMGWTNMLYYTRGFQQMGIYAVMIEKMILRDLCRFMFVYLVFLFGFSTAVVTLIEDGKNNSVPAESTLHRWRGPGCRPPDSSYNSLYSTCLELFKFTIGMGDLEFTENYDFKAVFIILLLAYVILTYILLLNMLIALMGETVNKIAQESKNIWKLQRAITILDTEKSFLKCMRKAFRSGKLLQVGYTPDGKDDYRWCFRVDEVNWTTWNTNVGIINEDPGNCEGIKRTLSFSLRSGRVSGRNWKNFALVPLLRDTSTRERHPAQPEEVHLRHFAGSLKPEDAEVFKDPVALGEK
Chain of tsV1_M579V (L8Y7X1 1-828 M598V): as the sequence (L8Y7X1 1-828) above, with M598V counted along it
T4 sequence (Q704Y3 whole entry T551V): as the sequence (Q704Y3 whole entry T551M) above, with M551V counted along it

SMILES: CCCCC/C=C/C=C/C(=O)NCCc1ccc(O)c(OC)c1 [Cap2]
- EC50 (tsV1_M579T): 2.34 ± 0.26 µM
- Shift of concentration-response curve relative to wild-type tsV1 (tsV1_M579T): large shifts to the left
- Change in the EC50 on mutating the homologous site (mV1_T551M or tsV1_M579T) (tsV1_M579T; hek293t cells): approximately 1,000 fold
- EC50 of tsV1_M579T lower than EC50 of wild-type tsV1 (tsV1_M579T; hek293t cells): approximately 1,000 fold
- EC50 (tsV1_M579S): 5.46 µM
- Shift of concentration-response curve relative to wild-type tsV1 (tsV1_M579S): large shifts to the left
- EC50 (tsV1_M579G): 920 µM
- EC50 (tsV1_M579A): 1070 µM
- EC50 (mV1_T551M [1]): 151.4 ± 0.12 µM
- EC50 (polar bear TRPV1 (pV1)): 0.87 ± 0.04 µM
- EC50 (tree shrew TRPV1 (tsV1)): 1900 µM and ~1900 µM
- EC50 of tsV1 larger than the EC50 of mV1 (tree shrew TRPV1 (tsV1); hek293t cells): approximately 2,500 fold
- Calcium signal in mV1_T551M-expressing HEK293 cells (mV1_T551M [2]): largely diminished calcium signal
- EC50 (human TRPV1 (hV1)): 5.73 ± 0.05 µM
- EC50 (mouse TRPV1 (mV1)): 0.74 ± 0.05 µM
- EC50 (tsV1_M579V): 830 µM
- Change of food intake when the compound is added to the food (tree shrews; in vivo): slight increase
- Normalized food-intake, AVE_tree shrew (tree shrews; in vivo): 1.13 and 1.269 and 1.38 and 1.28
- Change of food intake when the compound is added to the food (BALB/c mice [3]): significantly decreased

SMILES: COc1cc(CNC(=O)CCCC/C=C/C(C)C)ccc1O [capsaicin]
- Change in the EC50 on mutating the homologous site (mV1_T551M or tsV1_M579T) (tsV1_M579T): approximately 10 fold
- EC50 of tsV1_M579T lower than EC50 of wild-type tsV1 (tsV1_M579T): approximately 50 fold
- EC50 (mV1_T551V): ~1.5 µM
- Capsaicin-induced acute pain behavior (paw licking) (tree shrew): absent
- paw licking after capsaicin (S1B Fig), AVE_tree shrew (tree shrew): 1.836 and 1.5525
- paw licking after capsaicin (S1B Fig), tree shrew, single animals (tree shrew): 3.34 and 1.67 and 2.84 and 0.95 and 1.47 and 1.89 and 1.46 and 0.74 and 2 and 2.07 and 2.32 and 2.01 and 1.28
- EC50 (mV1_T551M [1]): ~2.1 µM
- paw licking after capsaicin (S1B Fig), mouse, single animals (BALB/c mice [4]): 74.03 and 80.09 and 18.24 and 91.1 and 11.82 and 100.82 and 8.03 and 45.87 and 22.39 and 126.21
- paw licking after capsaicin (S1B Fig), AVE_mouse (BALB/c mice [4]; mouse): 55.056 and 60.664
- Calcium response of DRG neurons (tree shrew DRG neurons): much weaker response
- EC50 (tree shrew TRPV1 (tsV1)): 5.2 ± 0.13 µM
- EC50 (mouse TRPV1 (mV1)): 0.2 µM and ~0.2 µM
- Paw tissue histology (H&E) after hind paw injection (mouse paw tissue): significantly increased
- Normalized food-intake, AVE_tree shrew (tree shrews; 24 hours, n = 3): 1.087 and 1.119 and 1.28 and 1.255
- Change of food intake when the compound is added to the food (tree shrews; in vivo): no such change
- Normalized food-intake, tree shrew (individual replicate) (tree shrews; in vivo): 1.004 and 1.211 and 1.046 and 1.034 and 1.223 and 1.101 and 1.209 and 1.372 and 1.259 and 1.119 and 1.381 and 1.265
- Normalized food-intake, mouse (individual replicate) (BALB/c mice [3]): 0.359 and 0.496 and 0.524 and 0.168 and 0.264 and 0.288 and 0.063 and 0.143 and 0.169 and 0.008 and 0.009 and 0.007
- Change of food intake when the compound is added to the food (BALB/c mice [3]): significantly reduced in a concentration-dependent manner

SMILES: CCCCC[C@H](O)CC(=O)CCc1ccc(O)c(OC)c1 [gingerol]
- Change in the EC50 on mutating the homologous site (mV1_T551M or tsV1_M579T) (tsV1_M579T): approximately 6 fold

SMILES: O=C(/C=C/C=C/c1ccc2c(c1)OCO2)N1CCCCC1 [piperine]
- Change in the EC50 on mutating the homologous site (mV1_T551M or tsV1_M579T) (tsV1_M579T; hek293t cells): approximately 2 fold

SMILES: CCCCC/C=C/C(=O)CCc1ccc(O)c(OC)c1 [shogaol]
- Change in the EC50 on mutating the homologous site (mV1_T551M or tsV1_M579T) (tsV1_M579T; hek293t cells): approximately 10 fold

— PMC6042686 (PLoS Biology, 2018)
